In patent US6914045B2, “Glycopeptide antibiotics” (Wyeth Holdings Corporation, priority 2001, dated 2005):
Converted amounts (≈) assume the structure as drawn.

Tests used:
Enterococcus sp. = experiment: in vitro antibacterial evaluation, MIC by broth dilution; type: cell-based; conditions: broth dilution, 18 hours at 35° C.; for MIC Enterococcus faecalis (ATCC 29212): strain ATCC 29212; for MIC Enterococcus faecium (GC 2243): strain GC 2243; for MIC Enterococcus faecalis (GC 4552): strain GC 4552; for MIC Enterococcus faecalis (GC 4553): strain GC 4553; for MIC Enterococcus faecalis (GC 4554): strain GC 4554; for MIC Enterococcus faecium (GC 4556): strain GC 4556; for MIC Enterococcus faecium (GC 4557): strain GC 4557; for MIC Enterococcus avium (GC 4558): strain GC 4558; for MIC Enterococcus faecalis (GC 6189): strain GC 6189
Method in brief: (§1)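 Inoculum 5×10^5 CFU/mL; concentrations 64 to 0.06 μg/mL; MIC defined as lowest inhibitory level. Conducted by broth dilution under NCCLS guidelines.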

Staphylococcus sp. = experiment: as above; type: cell-based; conditions: broth dilution, 18 hours at 35° C.; for MIC Staphylococcus aureus (GC 1131): strain GC 1131
Method in brief: as §1

Streptococcus sp. = experiment: as above; type: cell-based; conditions: broth dilution, 18 hours at 35° C.
Method in brief: as §1

Escherichia coli = experiment: as above; type: cell-based
Method in brief: as §1

[1] = test system: Staphylococcus aureus-SMITH (GC 4543); experiment: acute lethal infection in mice; type: in vivo; conditions: acute lethal infection, female CD-1 mice, intraperitoneal challenge, intravenous 30 min. after infection, 7 day survival
Experimental: Methods for in Vivo Antibacterial Evaluation
The therapeutic effects of glycopeptide antibiotics of Formula I are determined against acute lethal infections with S. aureus (strain Smith), a penicillin resistant strain of S. pneumoniae (strain GC 1894), and a vancomycin resistant strain of E. fecalis (strain GC 6189 and GC 2246). Female mice, CD-1 (Charles River Laboratories), 20+/−2 gm, are challenged by intraperitoneal injection of sufficient bacteria (suspended in /trypticase Soy Broth or hog gastric mucin) to kill non-treated controls within 24-48 hr. Antibacterial agents, contained in 0.2 mL of saline or 5% dextrose solution, are administered intravenously 30 min. after infection. Five mice are treated at each dose level. The 7 day survival ratios from 3 separate tests are pooled for calculation of median effective dose (ED50).

In the case of `CC(c1ccccc1)C1NC(=O)CNC(=O)C(CO)NC(=O)C(C(O)C2CNC(=N)N2C2OC(CO)C(O)C(O)C2O)NC(=O)C(C(O)C2CNC(=N)N2)NC(=O)C(Cc2ccc(OC3OC(CO)C(OC4OC5COC(c6cccc(-c7ccccc7)c6)OC5C(O)C4O)C(O)C3O)cc2)NC1=O` (stereo not drawn) [Example 154, Cyclo[glycyl-β-methylphenylalanyl-O-[4-O-[4,6-O-(3-phenylbenzylidene)hexopyranosyl]-hexopyranosyl]tyrosyl-3-(2-iminoimidazolidin-4-yl)seryl-3-(3-hexopyranosyl-2-iminoimidazolidin-4-yl)serylseryl]], the “MIC Enterococcus faecalis (GC 2242)” value (Enterococcus sp.; Enterococcus faecalis (GC 2242)) is reported as 2 µg/mL (≈ 1.37 µM), the “MIC Enterococcus faecalis (GC 2691)” value (Enterococcus sp.; Enterococcus faecalis (GC 2691)) is reported as 2 µg/mL (≈ 1.37 µM) and the “MIC Enterococcus faecalis (GC 3059)” value (Enterococcus sp.; Enterococcus faecalis (GC 3059)) is reported as 2 µg/mL (≈ 1.37 µM). The “MIC Enterococcus faecalis (ATCC 29212)” value (Enterococcus sp.; inoculum 5×10^5 CFU/mL) was 2 µg/mL (≈ 1.37 µM), the “MIC Enterococcus faecium (GC 2243)” value (Enterococcus sp.; inoculum 5×10^5 CFU/mL) was 2 µg/mL (≈ 1.37 µM) and the “MIC Enterococcus faecalis (GC 4552)” value (Enterococcus sp.; inoculum 5×10^5 CFU/mL) was 2 µg/mL (≈ 1.37 µM). The “MIC Enterococcus faecalis (GC 4553)” value (Enterococcus sp.; inoculum 5×10^5 CFU/mL) was 2 µg/mL (≈ 1.37 µM), the “MIC Enterococcus faecalis (GC 4554)” value (Enterococcus sp.; inoculum 5×10^5 CFU/mL) was 2 µg/mL (≈ 1.37 µM) and the “MIC Enterococcus faecium (GC 4556)” value (Enterococcus sp.; inoculum 5×10^5 CFU/mL) was 2 µg/mL (≈ 1.37 µM). For the same molecule, the “MIC Enterococcus faecium (GC 4557)” value (Enterococcus sp.; inoculum 5×10^5 CFU/mL) was 2 µg/mL (≈ 1.37 µM), the “MIC Enterococcus avium (GC 4558)” value (Enterococcus sp.; inoculum 5×10^5 CFU/mL) was 1 µg/mL (≈ 0.685 µM) and the “MIC Enterococcus faecalis (GC 6189)” value (Enterococcus sp.; inoculum 5×10^5 CFU/mL) was 2 µg/mL (≈ 1.37 µM). For the same molecule, the “MIC Enterococcus faecalis (ATCC 29212)” value (Enterococcus sp.) was 2 µg/mL (≈ 1.37 µM), the “MIC Enterococcus faecalis (GC 2242)” value (Enterococcus sp.; strain GC 2242) was 2 µg/mL (≈ 1.37 µM) and the “MIC Enterococcus faecium (GC 2243)” value (Enterococcus sp.) was 2 µg/mL (≈ 1.37 µM). For the same molecule, the “MIC Enterococcus faecalis (GC 2691)” value (Enterococcus sp.; strain GC 2691) was 2 µg/mL (≈ 1.37 µM), the “MIC Enterococcus faecalis (GC 3059)” value (Enterococcus sp.; strain GC 3059) was 2 µg/mL (≈ 1.37 µM) and the “MIC Enterococcus faecalis (GC 4552)” value (Enterococcus sp.) was 2 µg/mL (≈ 1.37 µM). For the same molecule, the “MIC Enterococcus faecalis (GC 4553)” value (Enterococcus sp.) was 2 µg/mL (≈ 1.37 µM), the “MIC Enterococcus faecalis (GC 4554)” value (Enterococcus sp.) was 2 µg/mL (≈ 1.37 µM) and the “MIC Enterococcus faecium (GC 4556)” value (Enterococcus sp.) was 2 µg/mL (≈ 1.37 µM). The “MIC Enterococcus faecium (GC 4557)” value (Enterococcus sp.) was 2 µg/mL (≈ 1.37 µM), the “MIC Enterococcus avium (GC 4558)” value (Enterococcus sp.) was 1 µg/mL (≈ 0.685 µM) and the “MIC Enterococcus faecalis (GC 6189)” value (Enterococcus sp.) was 2 µg/mL (≈ 1.37 µM). The “MIC Staphylococcus aureus (GC 1131)” value (Staphylococcus sp.; inoculum 5×10^5 CFU/mL) was 1 µg/mL (≈ 0.685 µM), the “MIC Staphylococcus aureus (ATCC 29213)” value (Staphylococcus sp.; strain ATCC 29213) was 1 µg/mL (≈ 0.685 µM) and the “MIC Staphylococcus aureus (GC 1131)” value (Staphylococcus sp.) was 1 µg/mL (≈ 0.685 µM). For the same molecule, the “MIC Staphylococcus aureus (GC 3051)” value (Staphylococcus sp.; strain GC 3051) was 1 µg/mL (≈ 0.685 µM), the “MIC Staphylococcus aureus (GC 3053)” value (Staphylococcus sp.; strain GC 3053) was 2 µg/mL (≈ 1.37 µM) and the “MIC Staphylococcus aureus (GC 4541)” value (Staphylococcus sp.; strain GC 4541) was 1 µg/mL (≈ 0.685 µM). The “MIC Staphylococcus aureus (GC 4542)” value (Staphylococcus sp.; strain GC 4542) was 1 µg/mL (≈ 0.685 µM), the “MIC Staphylococcus aureus-SMITH (GC 4543)” value (Staphylococcus sp.; strain GC 4543) was 1 µg/mL (≈ 0.685 µM) and the “MIC Staphylococcus aureus (GC 4544)” value (Staphylococcus sp.; strain GC 4544) was 2 µg/mL (≈ 1.37 µM). For the same molecule, the “MIC Staphylococcus aureus (GC 4545)” value (Staphylococcus sp.; strain GC 4545) was 1 µg/mL (≈ 0.685 µM), the “MIC Staphylococcus haemolyticus (GC 4546)” value (Staphylococcus sp.; strain GC 4546) was 1 µg/mL (≈ 0.685 µM) and the “MIC Coagulase Negative Staphylococcus (GC 4547)” value (Staphylococcus sp.; strain GC 4547) was 2 µg/mL (≈ 1.37 µM). For the same molecule, the “MIC Coagulase Negative Staphylococcus (GC 4548)” value (Staphylococcus sp.; strain GC 4548) was 0.5 µg/mL (≈ 0.343 µM), the “MIC Coagulase Negative Staphylococcus (GC 4549)” value (Staphylococcus sp.; strain GC 4549) was 0.25 µg/mL (≈ 0.171 µM) and the “MIC Coagulase Negative Staphylococcus (GC 4551)” value (Staphylococcus sp.; strain GC 4551) was 2 µg/mL (≈ 1.37 µM). The “MIC Coagulase Negative Staphylococcus (GC 6257)” value (Staphylococcus sp.; strain GC 6257) was 1 µg/mL (≈ 0.685 µM), the “MIC Staphylococcus aureus-SMITH (GC 4543)” value (Staphylococcus sp.; strain SMITH GC 4543) was 1 µg/mL (≈ 0.685 µM) and the “MIC Streptococcus agalactiae (GC 4564)” value (Streptococcus sp.; Streptococcus agalactiae (GC 4564)) was under 0.06 µg/mL. For the same molecule, the “MIC Streptococcus pneumoniae (ATCC 6301)” value (Streptococcus sp.; Streptococcus pneumoniae (ATCC 6301)) was under 0.06 µg/mL, the “MIC Streptococcus pneumoniae (GC 1894)” value (Streptococcus sp.; Streptococcus pneumoniae (GC 1894)) was under 0.06 µg/mL and the “MIC Streptococcus pneumoniae (GC 4565)” value (Streptococcus sp.; Streptococcus pneumoniae (GC 4565)) was under 0.06 µg/mL. For the same molecule, the “MIC Streptococcus pyogenes (GC 4563)” value (Streptococcus sp.; Streptococcus pyogenes (GC 4563)) was under 0.06 µg/mL, the “MIC Streptococcus pneumoniae (ATCC 6301)” value (Streptococcus sp.; strain ATCC 6301) was under 0.06 µg/mL and the “MIC Streptococcus pneumoniae (GC 1894)” value (Streptococcus sp.; strain GC 1894) was under 0.06 µg/mL. The “MIC Streptococcus pyogenes (GC 4563)” value (Streptococcus sp.; strain GC 4563) was under 0.06 µg/mL, the “MIC Streptococcus agalactiae (GC 4564)” value (Streptococcus sp.; strain GC 4564) was under 0.06 µg/mL and the “MIC Streptococcus pneumoniae (GC 4565)” value (Streptococcus sp.; strain GC 4565) was under 0.06 µg/mL. For the same molecule, the “MIC Escherichia coli (ATCC 25922)” value (Escherichia coli; strain ATCC 25922, 18 hours at 35° C.) was 32 µg/mL (≈ 21.9 µM), the “MIC Escherichia coli (GC 4559)” value (Escherichia coli; strain GC 4559, 18 hours at 35° C.) was 32 µg/mL (≈ 21.9 µM) and the “MIC Escherichia coli (GC 4560)” value (Escherichia coli; strain GC 4560, 18 hours at 35° C.) was 2 µg/mL (≈ 1.37 µM). The median effective dose (ED50), Staphylococcus aureus-SMITH (GC 4543) [1] was 0.1 mg/kg.
